# Source: PubChem BioAssay AID2060891 (Molecular Pharmacology Branch, DTP, NCI, 2025)
# Tested on: K98450-129-R-PDC complex spheroid growth, percent test/control
# Test: Anticancer human tumor K98450-129-R-PDC patient-derived colon adenocarcinoma cell line growth inhibition [RAS]
# Settings: for IC50: curve of first compound; for viability, T/C: stronger effect = lower value
# In short: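 Tumour cells grown as complex spheroids with HUVEC endothelial cells and mesenchymal stem cells, treated with RAS pathway inhibitor combinations. Each agent spans half-log steps from near clinical Cmax, or 10 microM where Cmax is unknown.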
# [1] = second compound 0.000949 µM, first compound 0.0316 µM
# [2] = second compound 0.000949 µM, first compound 0.1 µM
# [3] = second compound 0.000949 µM, first compound 0.316 µM
# [4] = second compound 0.000949 µM, first compound 1 µM
# [5] = second compound 0.003 µM, first compound 0.0316 µM
# [6] = second compound 0.003 µM, first compound 0.1 µM
# [7] = second compound 0.003 µM, first compound 0.316 µM
# [8] = second compound 0.003 µM, first compound 1 µM
# [9] = second compound 0.00949 µM, first compound 0.0316 µM
# [10] = second compound 0.00949 µM, first compound 0.1 µM
# [11] = second compound 0.00949 µM, first compound 0.316 µM
# [12] = second compound 0.00949 µM, first compound 1 µM
# [13] = second compound 0.03 µM, first compound 0.0316 µM
# [14] = second compound 0.03 µM, first compound 0.1 µM
# [15] = second compound 0.03 µM, first compound 0.316 µM
# [16] = second compound 0.03 µM, first compound 1 µM
# [17] = second compound 0.0949 µM, first compound 0.0316 µM
# [18] = second compound 0.0949 µM, first compound 0.1 µM
# [19] = second compound 0.0949 µM, first compound 0.316 µM
# [20] = second compound 0.0949 µM, first compound 1 µM
# [21] = second compound 0.3 µM, first compound 0.0316 µM
# [22] = second compound 0.3 µM, first compound 0.1 µM
# [23] = second compound 0.3 µM, first compound 0.316 µM
# [24] = second compound 0.3 µM, first compound 1 µM
# 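Also: spheroids exposed to agents for seven days before the viability readout.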
# 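For viability, T/C in this document: luminescence used as a proxy for viable cell amount.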
smiles,measurement,setting,value
CC(=O)OC12COC1CC(O)C1(C)C(=O)C(O)C3=C(C)C(OC(=O)C(O)C(NC(=O)OC(C)(C)C)c4ccccc4)CC(O)(C(OC(=O)c4ccccc4)C21)C3(C)C (centres undefined) + CCn1c(-c2cc(N3CCN(C)CC3)cnc2C(C)OC)c2c3cc(ccc31)-c1csc(n1)CC(NC(=O)C1CC1C)C(=O)N1CCCC(N1)C(=O)OCC(C)(C)C2,IC50,second compound 0.000949 µM,688 nM
same,IC50,second compound 0.003 µM,252 nM
same,IC50,second compound 0.00949 µM,188 nM
same,IC50,second compound 0.03 µM,< 31.6 nM
same,IC50,second compound 0.0949 µM,< 31.6 nM
same,IC50,second compound 0.3 µM,< 31.6 nM
same,"viability, T/C",[1],101%
same,"viability, T/C",[2],78.6%
same,"viability, T/C",[3],66.3%
same,"viability, T/C",[4],39.4%
same,"viability, T/C","second compound 0.000949 µM, first compound 3.16 µM",38.4%
same,"viability, T/C","second compound 0.000949 µM, first compound 10 µM",34%
same,"viability, T/C",[5],95.8%
same,"viability, T/C",[6],69.4%
same,"viability, T/C",[7],46%
same,"viability, T/C",[8],29.2%
same,"viability, T/C","second compound 0.003 µM, first compound 3.16 µM",32.5%
same,"viability, T/C","second compound 0.003 µM, first compound 10 µM",22.4%
same,"viability, T/C",[9],64.7%
same,"viability, T/C",[10],70.1%
same,"viability, T/C",[11],35.6%
same,"viability, T/C",[12],24.6%
same,"viability, T/C","second compound 0.00949 µM, first compound 3.16 µM",23.5%
same,"viability, T/C","second compound 0.00949 µM, first compound 10 µM",19.2%
same,"viability, T/C",[13],44.9%
same,"viability, T/C",[14],43.2%
same,"viability, T/C",[15],20.9%
same,"viability, T/C",[16],16.6%
same,"viability, T/C","second compound 0.03 µM, first compound 3.16 µM",15.8%
same,"viability, T/C","second compound 0.03 µM, first compound 10 µM",15.3%
same,"viability, T/C",[17],17.3%
same,"viability, T/C",[18],14.5%
same,"viability, T/C",[19],12.4%
same,"viability, T/C",[20],12.5%
same,"viability, T/C","second compound 0.0949 µM, first compound 3.16 µM",12.5%
same,"viability, T/C","second compound 0.0949 µM, first compound 10 µM",10.7%
same,"viability, T/C",[21],11%
same,"viability, T/C",[22],10.1%
same,"viability, T/C",[23],11%
same,"viability, T/C",[24],9.96%
same,"viability, T/C","second compound 0.3 µM, first compound 3.16 µM",10.9%
same,"viability, T/C","second compound 0.3 µM, first compound 10 µM",9.38%
Nc1ccn(C2OC(CO)C(O)C2(F)F)c(=O)n1 (centres undefined) + CCn1c(-c2cc(N3CCN(C)CC3)cnc2C(C)OC)c2c3cc(ccc31)-c1csc(n1)CC(NC(=O)C1CC1C)C(=O)N1CCCC(N1)C(=O)OCC(C)(C)C2,IC50,second compound 0.000949 µM,254 nM
same,IC50,second compound 0.003 µM,133 nM
same,IC50,second compound 0.00949 µM,26.4 nM
same,IC50,second compound 0.03 µM,< 3.16 nM
same,IC50,second compound 0.0949 µM,< 3.16 nM
same,IC50,second compound 0.3 µM,< 3.16 nM
same,"viability, T/C","second compound 0.000949 µM, first compound 0.00316 µM",93.1%
same,"viability, T/C","second compound 0.000949 µM, first compound 0.01 µM",82.9%
same,"viability, T/C",[1],80.5%
same,"viability, T/C",[2],56.4%
same,"viability, T/C",[3],50.5%
same,"viability, T/C",[4],37.6%
same,"viability, T/C","second compound 0.003 µM, first compound 0.00316 µM",98.1%
same,"viability, T/C","second compound 0.003 µM, first compound 0.01 µM",80.1%
same,"viability, T/C",[5],62.3%
same,"viability, T/C",[6],52.8%
same,"viability, T/C",[7],44.4%
same,"viability, T/C",[8],37.3%
same,"viability, T/C","second compound 0.00949 µM, first compound 0.00316 µM",77%
same,"viability, T/C","second compound 0.00949 µM, first compound 0.01 µM",62.2%
same,"viability, T/C",[9],49.2%
same,"viability, T/C",[10],33.2%
same,"viability, T/C",[11],30%
same,"viability, T/C",[12],23.8%
same,"viability, T/C","second compound 0.03 µM, first compound 0.00316 µM",43.4%
same,"viability, T/C","second compound 0.03 µM, first compound 0.01 µM",45.9%
same,"viability, T/C",[13],33.5%
same,"viability, T/C",[14],23.1%
same,"viability, T/C",[15],20.7%
same,"viability, T/C",[16],15.2%
same,"viability, T/C","second compound 0.0949 µM, first compound 0.00316 µM",21.1%
same,"viability, T/C","second compound 0.0949 µM, first compound 0.01 µM",21.4%
same,"viability, T/C",[17],14.4%
same,"viability, T/C",[18],11.9%
same,"viability, T/C",[19],14.8%
same,"viability, T/C",[20],11.5%
same,"viability, T/C","second compound 0.3 µM, first compound 0.00316 µM",9.67%
same,"viability, T/C","second compound 0.3 µM, first compound 0.01 µM",13.7%
same,"viability, T/C",[21],12.9%
same,"viability, T/C",[22],11.4%
same,"viability, T/C",[23],10.9%
same,"viability, T/C",[24],9.09%
